Blank lines part the entries; values can stand above or below the substance they belong to. Square brackets hold non-standard residues; d marks the D form. Ends that are not written are not given here.
Columns and labels:
[1] = Peptide binding assay on titanium beads (streptavidin-AP detection, binding curve EC50)
Protocol: (§1) Relative binding strengths (affinities) of the peptides to metal, also used as a measure of binding specificity, were determined by testing serial dilutions of the peptide for binding to a target substrate comprising metal, as represented by titanium or steel. Plotting the absorbance observed across the concentration range for each peptide sequence yielded a binding curve of the peptides to its target substrate from which can be determined an EC50 (e.g., the concentration of peptide that gives 50% of the maximum signal in the binding curve is used as an estimate of the affinity of the peptide for the target). Preferred are peptides that bind to the selected target substrate (in this case, metal) with binding specificity, preferably with an EC50 of less than or equal to about 1 μM, and more preferably, in the nanomolar range (e.g., <0.1 μM). […] A typical binding assay for titanium (note, a different substrate may be substituted for titanium in the assay) may be perofrmed according to the following procedure.
(§2) Briefly, 5/32-inch diameter Grade 200 titanium beads were washed by sonication in acetone for 15 minutes, and the beads were allowed to dry. One bead was added to each well of a 96-well polypropylene plate. Two hundred fifty (250) μL of 1% BSA in PBS was added to each well of the plate. The surface of the wells was blocked by incubation for 1 hour at 20° C. with shaking at 500 rpm. The plate was washed three times with 250 μL of buffer-T per well. A 1:3 dilution series of each of the peptides was prepared using PBS as a diluent, starting at a peptide concentration of 20 μM, and going down to 0.0001 μM. A 200 μL sample of each dilution was added to wells of the plate. The plate was incubated for 1 hour at 20° C. with shaking at 500 rpm. The beads were washed three times with 250 μL of buffer-T per well. Two hundred (200) μL of streptavidin-alkaline phosphatase (“streptavidin AP”) reagent, at a dilution of 1:2000 in buffer+1% BSA, was added to each well. The plate was incubated for 30 minutes at room temperature. The beads were washed three times with 250 μL of buffer-T per well. Two hundred (200) μL of color development reagent (PNPP, p-nitrophenol phosphate) was added to each well. After color had developed (10 minutes), the samples were transferred to a clear 96-well plate and the absorbance at 405 nm determined. A binding curve was generated by plotting the absorbance at 405 nm against the peptide concentration (μM).

[2] = Peptide binding assay on stainless steel; settings: for binding to stainless steel (in words): biotinylated peptides
Protocol: as §1, §2
(§3) In this embodiment, illustrated are additional characterizations of the binding specificities of examples of metal binding domains, and peptides containing the metal binding domains, according to the present invention to various substrates, such as metal (as illustrated by stainless steel, zirconium metal alloy […]) versus binding to a polymer (as illustrated by polystyrene). Using the methods illustrated in Example 2, binding specificities for the various substrates were determined; with the results illustrated in Table 6 (Note: “none” means any binding detected was very low, and not above background binding (such as by a control peptide with no binding specificity for metal) in the binding assay; and thus, a binding curve for calculation of an EC50 could not be generated).

[3] = Peptide binding assay on polymer (polystyrene); settings: Table 6, polymer illustrated by polystyrene
Protocol: as §1, §2, §3

[4] = Peptide binding assay on glass; settings: Table 6
Protocol: as §1, §2, §3

[5] = Peptide binding assay on zirconium metal alloy; settings: Table 6
Protocol: as §1, §2, §3

[6] = Table 3, substituted peptides labeled with biotin, binding to titanium, read-out: EC50
[7] = Table 4, second-generation peptides, biotinylated at C-terminal lysine, binding to titanium, read-out: EC50
[8] = Table 6, read-out: EC50 (μM) stainless steel
[9] = Table 5, spacing between triplets, biotinylated peptides, binding to titanium, read-out: EC50

EC50 [1, 7]: 4000 nM
binding to titanium (in words) ([1]; biotinylated peptides): comparably poorer binding affinity
Substance: SHGHGGHGHGSSGK [SEQ ID NO: 80]

EC50 [1, 7]: 500 nM
Substance: SHHKGGHHKGSSGK- (not fully specified; printed as SHHKGGHHKGSSGK-; also: name ends with '-': unspecified C-terminal conjugate) [SEQ ID NO: 78]

EC50 [1, 7]: 150 nM
Substance: SHKHGGGGHKHGSSGK [SEQ ID NO: 76]

EC50 [1, 7]: 200 nM
EC50 [2, 8]: < 1 µM
EC50 [3]: > 20 µM
EC50 [4]: < 1 µM
EC50 [5]: < 1 µM
Substance: SHKHGGHKHGSSGK [SEQ ID NO: 77]

EC50 [1, 9]: 70 nM
Substance: SKHKGGGGGKHKGSSGK [SEQ ID NO: 84]

EC50 [1, 7]: 110 nM
EC50 [2, 8]: < 0.5 µM
EC50 [3]: > 20 µM
EC50 [4]: < 0.1 µM
EC50 [5]: < 0.1 µM
Substance: SKHKGGGGKHKGSSGK [SEQ ID NO: 75]

EC50 [1, 9]: 75 nM
Substance: SKHKGGGKHKGSSGK [SEQ ID NO: 83]

EC50 [1, 7]: 25 nM
EC50 ([1]; Table 7, peptide monomer versus branched polymers, binding to titanium, read-out: EC50): 25 nM
EC50 [2, 8]: < 0.05 µM
EC50 [3]: > 20 µM
EC50 [4]: < 0.05 µM
EC50 [5]: < 0.05 µM
Substance: SKHKGGKHKGGKHKGSSGK [SEQ ID NO: 79]

EC50 [1, 9]: 60 nM
Substance: SKHKGKHKGSSGK [SEQ ID NO: 82]

EC50 [1, 9]: 60 nM
Substance: SKHKKHKGSSGK [SEQ ID NO: 81]

binding to titanium (in words) ([1]; biotinylated peptides): showed binding
binding to stainless steel (in words) [2]: showed binding
Substance: ssCDQNDIFYTSKKSHKSHCsr ([code s][code s]CDQNDIFYTSKKSHKSHC[code s][code r]; not fully specified; printed as ssCDQNDIFYTSKKSHKSHCsr; cysteine pairing not given here) [SEQ ID NO: 49]

binding to titanium (in words) ([1]; biotinylated peptides, listed as 47): showed binding
binding to titanium (in words) ([1]; biotinylated peptides, listed as SEQ ID NO:47): strongest binding
EC50 ([1]; biotinylated phage-derived peptide, text of Example 2, read-out: EC50 on titanium): ~800 nM
binding to stainless steel (in words) ([2]; listed as 47): showed binding
binding to stainless steel (in words) ([2]; listed as SEQ ID NO:47): strongest binding
EC50 ([2]; biotinylated phage-derived peptide, text of Example 2, read-out: EC50 on stainless steel): ~1 µM
Substance: ssCNCYVTPNLLKHKCYKICsr ([code s][code s]CNCYVTPNLLKHKCYKIC[code s][code r]; not fully specified; printed as ssCNCYVTPNLLKHKCYKICsr; cysteine pairing not given here) [SEQ ID NO: 47]

binding to titanium (in words) ([1]; biotinylated peptides): showed binding
binding to stainless steel (in words) [2]: showed binding
Substance: ssCSHNHHKLTAKHQVAHKCsr ([code s][code s]CSHNHHKLTAKHQVAHKC[code s][code r]; not fully specified; printed as ssCSHNHHKLTAKHQVAHKCsr; cysteine pairing not given here) [SEQ ID NO: 48]

binding to titanium (in words) ([1]; biotinylated peptides): showed binding
binding to stainless steel (in words) [2]: showed binding
Substance: ssSDKCHKHWYCYESKYGGSsr ([code s][code s]SDKCHKHWYCYESKYGGS[code s][code r]; cysteine pairing not given here; also: biotinylated (site not given here)) [SEQ ID NO: 51]

Continued, substance first:

Substance: SGGGPVTPRFFVVESK [SEQ ID NO: 64]
EC50 [1, 6]: > 100000 nM

Substance: SHKHGGGGRFFVVESK [SEQ ID NO: 61]
EC50 [1, 6]: 3000 nM

Substance: SHKHGGHKHGGHKHGSSGK [SEQ ID NO: 72]
EC50 [1, 7]: 35 nM
EC50 [2, 8]: < 0.1 µM
EC50 (μM) Polymer [3]: None
EC50 [4]: < 0.05 µM
EC50 [5]: < 0.1 µM

Substance: SHKHGGKHKGSSGK [SEQ ID NO: 74]
EC50 [1, 7]: 60 nM
EC50 [2, 8]: < 0.5 µM
EC50 [3]: > 20 µM
EC50 [4]: < 0.5 µM
EC50 [5]: < 0.1 µM

Substance: SHKHPVTPGFFVVESK [SEQ ID NO: 63]
EC50 [1, 6]: > 50000 nM

Substance: SHKHPVTPRFFVVESK [SEQ ID NO: 59, Parent]
EC50 [1, 6]: 4000 nM

Substance: SHKHPVTPRFFVVGSK [SEQ ID NO: 68]
EC50 [1, 6]: 600 nM

Substance: SHKHPVTPRFFVVKSK [SEQ ID NO: 66]
EC50 [1, 6]: 50 nM

Substance: SHKHPVTPRFFVVNSK [SEQ ID NO: 69]
EC50 [1, 6]: 800 nM

Substance: SHKHPVTPRFFVVVSK [SEQ ID NO: 67]
EC50 [1, 6]: 200 nM

Substance: SHKHPVTPRFFVVYSK [SEQ ID NO: 65]
EC50 [1, 6]: 50 nM

Substance: SHKHPVTPRGGGGESK [SEQ ID NO: 62]
EC50 [1, 6]: 3000 nM

Substance: SHKHPVTPRGGVVESK [SEQ ID NO: 60]
EC50 [1, 6]: 2000 nM

Substance: SKHKGGHKHGSSGK [SEQ ID NO: 73]
EC50 [1, 7]: 45 nM
EC50 [2, 8]: < 0.5 µM
EC50 [3]: > 20 µM
EC50 [4]: < 0.5 µM
EC50 [5]: < 0.5 µM

Substance: SKHKGGKHKGSSGK [SEQ ID NO: 71]
EC50 [1, 7]: 26 nM
EC50 [1, 9]: 26 nM
EC50 [2, 8]: < 0.5 µM
EC50 [3]: > 20 µM
EC50 [4]: < 0.5 µM
EC50 [5]: < 0.1 µM

Substance: SKKHGGKKHGSSGK [SEQ ID NO: 70]
EC50 [1, 7]: 13 nM
EC50 [2, 8]: < 0.1 µM
EC50 [3]: > 20 µM
EC50 [4]: < 0.1 µM
EC50 [5]: < 0.1 µM

From patent US20080015138A1, “Metal binding compounds, metal binding compositions, and their uses” (AFFINERGY, INC., priority 2006, published 2008)
